Measurements published in patent US9999619B2, “Piperidin-4-yl azetidine derivatives as JAK1 inhibitors” (Incyte Corporation, priority 2010, dated 2018).
pIC50: −log10 of the molar value.

Key:
Type in all cases: biochemical
[1] = biological target: human JAK1 (a.a. 837-1142) (Homo sapiens, UniProt P23458); test: In vitro JAK kinase assay (HTRF, phosphorylation of a biotinylated peptide), JAK1; settings: measured at 1 mM ATP
Summary of the method: (§1)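 Phosphorylation of a biotinylated peptide by purified His-tagged JAK catalytic domains (insect-cell baculovirus expression) ran 1 hr at room temperature. After stopping with EDTA, Eu-Py20 and SA-APC were bound for 40 minutes and HTRF measured.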

[2] = biological target: human JAK1 (a.a. 837-1142); test: as above; settings: ratio of JAK2 IC50 to JAK1 IC50, measured at 1 mM ATP
Summary of the method: as §1

[3] = biological target: Jak2 (a.a. 828-1132) (Homo sapiens (Human), UniProt O60674); test: In vitro JAK kinase assay (HTRF, phosphorylation of a biotinylated peptide), JAK2; settings: measured at 1 mM ATP
Chain of Jak2 (a.a. 828-1132) (O60674 828-1132): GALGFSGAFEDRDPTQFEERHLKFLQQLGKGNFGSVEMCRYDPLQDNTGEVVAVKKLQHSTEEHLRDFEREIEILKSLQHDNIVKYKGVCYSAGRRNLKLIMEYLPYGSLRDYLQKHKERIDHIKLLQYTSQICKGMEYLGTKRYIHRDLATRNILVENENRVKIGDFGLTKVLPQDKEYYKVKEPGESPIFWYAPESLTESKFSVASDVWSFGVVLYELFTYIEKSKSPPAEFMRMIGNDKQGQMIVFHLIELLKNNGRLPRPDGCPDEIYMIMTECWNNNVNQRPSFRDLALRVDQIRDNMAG
Summary of the method: as §1

SMILES	pIC50 [1]	IC50 Ratio JAK2/JAK1 [2]	pIC50 [3]
N#CCC1(n2cc(-c3ncnc4[nH]ccc34)cn2)CN(C2CC3CCC(C2)N3C(=O)c2ccc(F)c(F)c2)C1 (stereo not drawn) [Example 139, {1-[8-(3,4-difluorobenzoyl)-8-azabicyclo[3.2.1]oct-3-yl]-3-[4-(7H-pyrrolo[2,3-d]pyrimidin-4-yl)-1H-pyrazol-1-yl]azetidin-3-yl}acetonitrile]	≥ 8.30	4.4	≥ 8.00
N#CCC1(n2cc(-c3ncnc4[nH]ccc34)cn2)CN(C2CC3CCC(C2)N3C(=O)c2ccc(C#N)c(F)c2)C1 (stereo not drawn) [Example 140, 4-[(3-{3-(cyanomethyl)-3-[4-(7H-pyrrolo[2,3-d]pyrimidin-4-yl)-1H-pyrazol-1-yl]azetidin-1-yl}-8-azabicyclo[3.2.1]oct-8-yl)carbonyl]-2-fluorobenzonitrile]	7.70 to 8.30	5.4	7.30 to 8.00
N#CCC1(n2cc(-c3ncnc4[nH]ccc34)cn2)CN(C2CC3CCC(C2)N3C(=O)c2ccc(Cl)c(F)c2)C1 (stereo not drawn) [Example 141, {1-[8-(4-chloro-3-fluorobenzoyl)-8-azabicyclo[3.2.1]oct-3-yl]-3-[4-(7H-pyrrolo[2,3-d]pyrimidin-4-yl)-1H-pyrazol-1-yl]azetidin-3-yl}acetonitrile]	≥ 8.30	6.2	≥ 8.00
N#CCC1(n2cc(-c3ncnc4[nH]ccc34)cn2)CN(C2CC3CCC(C2)N3C(=O)c2ccnc(C(F)(F)F)c2F)C1 (stereo not drawn) [Example 142, {1-{8-[3-fluoro-2-(trifluoromethyl)isonicotinoyl]-8-azabicyclo[3.2.1]oct-3-yl}-3-[4-(7H-pyrrolo[2,3-d]pyrimidin-4-yl)-1H-pyrazol-1-yl]azetidin-3-yl}acetonitrile]	≥ 8.30	7.4	≥ 8.00
N#CCC1(n2cc(-c3ncnc4[nH]ccc34)cn2)CN(C2CC3CCC(C2)N3C(=O)c2ccc(C(F)(F)F)nc2)C1 (stereo not drawn) [Example 143, [3-[4-(7H-pyrrolo[2,3-d]pyrimidin-4-yl)-1H-pyrazol-1-yl]-1-(8-{[6-(trifluoromethyl)pyridin-3-yl]carbonyl}-8-azabicyclo[3.2.1]oct-3-yl)azetidin-3-yl]acetonitrile]	7.70 to 8.30	3.5	7.30 to 8.00
CC1CC(N2CC(CC#N)(n3cc(-c4ncnc5[nH]ccc45)cn3)C2)CCN1C(=O)C1CCC(F)(F)CC1 (stereo not drawn) [Example 151, {1-{1-[(4,4-difluorocyclohexyl)carbonyl]-2-methylpiperidin-4-yl}-3-[4-(7H-pyrrolo[2,3-d]pyrimidin-4-yl)-1H-pyrazol-1-yl]azetidin-3-yl}acetonitrile]	7.70 to 8.30	5.8	7.00 to 7.30
CC1(N2CC(CC#N)(n3cc(-c4ncnc5[nH]ccc45)cn3)C2)CCN(C(=O)c2cccc(F)c2)CC1 [Example 152, {1-[1-(3-Fluorobenzoyl)-4-methylpiperidin-4-yl]-3-[4-(7H-pyrrolo[2,3-d]pyrimidin-4-yl)-1H-pyrazol-1-yl]azetidin-3-yl}acetonitrile]	7.70 to 8.30	4.0	7.30 to 8.00
N#CCC1(n2cc(-c3ncnc4[nH]ccc34)cn2)CN(C2CCN(C(=O)Nc3c(F)cccc3F)CC2)C1 [Example 156, 4-{3-(cyanomethyl)-3-[4-(7H-pyrrolo[2,3-d]pyrimidin-4-yl)-1H-pyrazol-1-yl]azetidin-1-yl}-N-(2,6-difluorophenyl)piperidine-1-carboxamide]	≥ 8.30	11.2	7.30 to 8.00
N#CCC1(n2cc(-c3ncnc4[nH]ccc34)cn2)CN(C2CCN(C(=O)Nc3ccccc3C(F)(F)F)CC2)C1 [Example 157, 4-{3-(cyanomethyl)-3-[4-(7H-pyrrolo[2,3-d]pyrimidin-4-yl)-1H-pyrazol-1-yl]azetidin-1-yl}-N-[2-(trifluoromethyl)phenyl]piperidine-1-carboxamide]	≥ 8.30	14.8	7.00 to 7.30
N#CCC1(n2cc(-c3ncnc4[nH]ccc34)cn2)CN(C2CCN(C(=O)Nc3ccccc3OC(F)(F)F)CC2)C1 [Example 158, 4-{3-(cyanomethyl)-3-[4-(7H-pyrrolo[2,3-d]pyrimidin-4-yl)-1H-pyrazol-1-yl]azetidin-1-yl}-N-[2-(trifluoromethoxy)phenyl]piperidine-1-carboxamide]	≥ 8.30	12.0	7.30 to 8.00
N#CCC1(n2cc(-c3ncnc4[nH]ccc34)cn2)CN(C2CCN(C(=O)Nc3cscc3Br)CC2)C1 [Example 159, N-(4-bromo-3-thienyl)-4-{3-(cyanomethyl)-3-[4-(7H-pyrrolo[2,3-d]pyrimidin-4-yl)-1H-pyrazol-1-yl]azetidin-1-yl}piperidine-1-carboxamide]	≥ 8.30	15.0	7.30 to 8.00
N#CCC1(n2cc(-c3ncnc4[nH]ccc34)cn2)CN(C2CCN(C(=O)Nc3c(Cl)cccc3Cl)CC2)C1 [Example 160, 4-{3-(cyanomethyl)-3-[4-(7H-pyrrolo[2,3-d]pyrimidin-4-yl)-1H-pyrazol-1-yl]azetidin-1-yl}-N-(2,6-dichlorophenyl)piperidine-1-carboxamide]	≥ 8.30	12.1	7.30 to 8.00
Cc1cccc(Cl)c1NC(=O)N1CCC(N2CC(CC#N)(n3cc(-c4ncnc5[nH]ccc45)cn3)C2)CC1 [Example 161, N-(2-chloro-6-methylphenyl)-4-{3-(cyanomethyl)-3-[4-(7H-pyrrolo[2,3-d]pyrimidin-4-yl)-1H-pyrazol-1-yl]azetidin-1-yl}piperidine-1-carboxamide]	≥ 8.30	12.1	7.30 to 8.00
N#CCC1(n2cc(-c3ncnc4[nH]ccc34)cn2)CN(C2CCN(C(=O)Nc3ccc(F)cc3Cl)CC2)C1 [Example 162, N-(2-chloro-4-fluorophenyl)-4-{3-(cyanomethyl)-3-[4-(7H-pyrrolo[2,3-d]pyrimidin-4-yl)-1H-pyrazol-1-yl]azetidin-1-yl}piperidine-1-carboxamide]	≥ 8.30	13.6	7.30 to 8.00
N#CCC1(n2cc(-c3ncnc4[nH]ccc34)cn2)CN(C2CCN(C(=O)Nc3ccccc3Cl)CC2)C1 [Example 163, N-(2-chlorophenyl)-4-{3-(cyanomethyl)-3-[4-(7H-pyrrolo[2,3-d]pyrimidin-4-yl)-1H-pyrazol-1-yl]azetidin-1-yl}piperidine-1-carboxamide]	≥ 8.30	12.0	7.30 to 8.00
N#CCC1(n2cc(-c3ncnc4[nH]ccc34)cn2)CN(C2CCN(C(=O)Nc3ccccc3OC(F)F)CC2)C1 [Example 164, 4-{3-(cyanomethyl)-3-[4-(7H-pyrrolo[2,3-d]pyrimidin-4-yl)-1H-pyrazol-1-yl]azetidin-1-yl}-N-[2-(difluoromethoxy)phenyl]piperidine-1-carboxamide]	≥ 8.30	13.3	7.30 to 8.00
N#CCC1(n2cc(-c3ncnc4[nH]ccc34)cn2)CN(C2CCN(C(=O)Nc3cnccc3C(F)(F)F)CC2)C1 [Example 165]	7.70 to 8.30	10.4	7.00 to 7.30
N#CCC1(n2cc(-c3ncnc4[nH]ccc34)cn2)CN(C2CCN(C(=O)Nc3cccc(C(F)(F)F)c3)CC2)C1 [Example 166, 4-{3-(cyanomethyl)-3-[4-(7H-pyrrolo[2,3-d]pyrimidin-4-yl)-1H-pyrazol-1-yl]azetidin-1-yl}-N-[3-(trifluoromethyl)phenyl]piperidine-1-carboxamide]	≥ 8.30	5.5	≥ 8.00
N#CCC1(n2cc(-c3ncnc4[nH]ccc34)cn2)CN(C2CCN(C(=O)Nc3ccc(C(F)(F)F)cc3)CC2)C1 [Example 167, 4-{3-(cyanomethyl)-3-[4-(7H-pyrrolo[2,3-d]pyrimidin-4-yl)-1H-pyrazol-1-yl]azetidin-1-yl}-N-[4-(trifluoromethyl)phenyl]piperidine-1-carboxamide]	≥ 8.30	2.0	≥ 8.00
Cc1ccc(Cl)cc1NC(=O)N1CCC(N2CC(CC#N)(n3cc(-c4ncnc5[nH]ccc45)cn3)C2)CC1 [Example 168, N-(5-chloro-2-methylphenyl)-4-{3-(cyanomethyl)-3-[4-(7H-pyrrolo[2,3-d]pyrimidin-4-yl)-1H-pyrazol-1-yl]azetidin-1-yl}piperidine-1-carboxamide]	≥ 8.30	2.6	≥ 8.00
N#CCC1(n2cc(-c3ncnc4[nH]ccc34)cn2)CN(C2CCN(C(=O)Nc3ccccc3F)CC2)C1 [Example 169, 4-{3-(cyanomethyl)-3-[4-(7H-pyrrolo[2,3-d]pyrimidin-4-yl)-1H-pyrazol-1-yl]azetidin-1-yl}-N-(2-fluorophenyl)piperidine-1-carboxamide]	≥ 8.30	5.5	7.30 to 8.00
N#CCC1(n2cc(-c3ncnc4[nH]ccc34)cn2)CN(C2CCN(C(=O)Nc3cccc(C(F)(F)F)c3F)CC2)C1 [Example 170, 4-{3-(cyanomethyl)-3-[4-(7H-pyrrolo[2,3-d]pyrimidin-4-yl)-1H-pyrazol-1-yl]azetidin-1-yl}-N-[2-fluoro-3-(trifluoromethyl)phenyl]piperidine-1-carboxamide]	≥ 8.30	6.9	7.30 to 8.00
N#CCC1(n2cc(-c3ncnc4[nH]ccc34)cn2)CN(C2CCN(C(=O)Nc3ccc(F)cc3F)CC2)C1 [Example 171, 4-{3-(cyanomethyl)-3-[4-(7H-pyrrolo[2,3-d]pyrimidin-4-yl)-1H-pyrazol-1-yl]azetidin-1-yl}-N-(2,4-difluorophenyl)piperidine-1-carboxamide]	≥ 8.30	7.5	7.30 to 8.00
